# Assay results from PubChem BioAssay AID2060504 (Molecular Pharmacology Branch, DTP, NCI, 2025).
# Values joined by “and” are separate entries in the source; they are usually repeats but may differ in a detail not shown here. Equal entries are not always repeated.
# Test system: 636577-100-R-J1-PDC complex spheroid viability
# Experiment: Anticancer human tumor 636577-100-R-J1-PDC patient-derived endometrial adenocarcinoma cell line growth inhibition [GQUAD]
# Conditions: for viability, T/C: stronger effect = lower value
# From the text: DNA G-quadruplex Stabilizer Agents in Combinations in Complex Spheroids
# A high-throughput screen of multi-cell type tumor spheroids was designed to identify active combinations of DNA G-quadruplex stabilizer agents and targeted small molecules. Complex spheroids include a stromal component modeled by human endothelial cells (HUVEC) and fibroblasts modeled by human mesenchymal stem cells (MSCs). The concentration ranges selected for each drug and investigational agent were based upon clinically achievable concentrations if the clinical Cmax of the agent was known.
# Compounds. The drugs and investigational agents: pidnarulex (CX-5461; NSC782164), APTO-253 (NSC789042), BRACO-19 (NSC847499), peposertib (NSC802822), ceralasertib (NSC780249), elimusertib (NSC800525), camonsertib (NSC841442), AZD-1390 (NSC803789), olaparib (NSC753686), talazoparib (NSC767125), ART-558 (NSC835418), sotorasib (NSC818433), MRTX-1133 (NSC836407), SN-38 (NSC673596), topotecan (NSC609699), etoposide (NSC141540), doxorubicin (NSC123127), gemcitabine (NSC613327), 5-fluorouracil (NSC19893), paclitaxel (NSC125973), vemurafenib (NSC761431), panobinostat (NSC761190), R-306465 (JNJ-16241199; NSC773264), adavosertib (NSC754352), TP-3654 (NSC805149), carboplatin (NSC241240), KSQ-4279 (NSC840948), and staurosporine (NSC755774) were obtained from the National Cancer Institute (NCI) Developmental Therapeutics Program Chemical Repository (34). The FDA-approved anticancer drug set is available from the NCI Developmental Therapeutics Program. […] The stock solutions were prepared in dimethyl sulfoxide (DMSO, Sigma-Aldrich, St. Louis, MO, cat. D2650) at 800-fold the tested concentration and stored at -70 degrees C prior to their use. All drugs and investigational agents were tested over a range starting from a high concentration at or near the clinical Cmax and decreasing in half-log increments. If the clinical Cmax for an agent had not been determined, the highest concentration tested was 10 microM.
# 2.3 Cell Culture. All cells were maintained in an incubator at 37 degrees C and 5% CO2 with 95% humidity. The PDC lines were cultured according to standard operating procedures established by the NCI PDMR. All PDCs were thawed and cultured in Matrigel-coated flasks prepared with a working solution of 1X Ham's F-12 nutrient mix, without supplementation (Invitrogen, cat. 11765054), 100 U/mL penicillin-streptomycin (Invitrogen, cat. 15140122), and 2.5% Matrigel (Corning Inc., cat. 354248) for the first three passages. The 857933-349-R-J2-PDC line was cultured in 6C/Colon 1B media, which includes advanced DMEM/F-12 (Thermo Fisher Scientific, cat. 12634028), 10 mM HEPES (Thermo Fisher Scientific, cat. 15630080), 1X GlutaMAX supplement (Thermo Fisher Scientific, cat. 35050061), 0.1 mg/mL primocin (InvivoGen, cat. ant-pm-2), 10% defined fetal bovine serum, heat inactivated (HyClone Laboratories Inc., cat. SH30070.03HI), 50% L-WRN conditioned media (ATCC, cat. CRL-3276), 1.25 mM N-Acetyl-L-cysteine (Sigma-Aldrich, cat. A9165), 10 mM nicotinamide (Sigma-Aldrich, cat. N0636), 1X B-27 supplement (Thermo Fisher Scientific, cat. 17504044), 1X N-2 supplement (Thermo Fisher Scientific, cat. 17502048), 10 microM Y-27632 dihydrochloride (Tocris Bioscience, cat. 1254), and 50 ng/mL human EGF recombinant protein (Thermo Fisher Scientific, cat. PHG0311). The 485176-168-R4-J1-PDC line was cultured in Panc media, which includes all 6C/Colon 1B media components plus 100 ng/mL human FGF-10 (Thermo Fisher Scientific, cat. 100-26), 500 nM SB-431542 (Selleckchem, cat. S1067), and gastrin (Tocris, cat. 3006).
# […]
# [1] = curve of first compound, second compound 0.0316 µM
# [2] = curve of first compound, second compound 0.1 µM
# [3] = curve of first compound, second compound 0.316 µM
# [4] = curve of first compound, second compound 1 µM
# [5] = curve of first compound, second compound 3.16 µM
# [6] = curve of first compound, second compound 10 µM
# [7] = second compound 0.0316 µM, first compound 0.0316 µM
# [8] = second compound 0.0316 µM, first compound 0.1 µM
# [9] = second compound 0.0316 µM, first compound 0.316 µM
# [10] = second compound 0.0316 µM, first compound 1 µM
# [11] = second compound 0.0316 µM, first compound 3.16 µM
# [12] = second compound 0.0316 µM, first compound 10 µM
# [13] = second compound 0.1 µM, first compound 0.0316 µM
# [14] = second compound 0.1 µM, first compound 0.1 µM
# [15] = second compound 0.1 µM, first compound 0.316 µM
# [16] = second compound 0.1 µM, first compound 1 µM
# [17] = second compound 0.1 µM, first compound 3.16 µM
# [18] = second compound 0.1 µM, first compound 10 µM
# [19] = second compound 0.316 µM, first compound 0.0316 µM
# [20] = second compound 0.316 µM, first compound 0.1 µM
# [21] = second compound 0.316 µM, first compound 0.316 µM
# [22] = second compound 0.316 µM, first compound 1 µM
# [23] = second compound 0.316 µM, first compound 3.16 µM
# [24] = second compound 0.316 µM, first compound 10 µM
# [25] = second compound 1 µM, first compound 0.0316 µM
# [26] = second compound 1 µM, first compound 0.1 µM
# [27] = second compound 1 µM, first compound 0.316 µM
# [28] = second compound 1 µM, first compound 1 µM
# [29] = second compound 1 µM, first compound 3.16 µM
# [30] = second compound 1 µM, first compound 10 µM
# [31] = second compound 3.16 µM, first compound 0.0316 µM
# [32] = second compound 3.16 µM, first compound 0.1 µM
# [33] = second compound 3.16 µM, first compound 0.316 µM
# [34] = second compound 3.16 µM, first compound 1 µM
# [35] = second compound 3.16 µM, first compound 3.16 µM
# [36] = second compound 3.16 µM, first compound 10 µM
# [37] = second compound 10 µM, first compound 0.0316 µM
# [38] = second compound 10 µM, first compound 0.1 µM
# [39] = second compound 10 µM, first compound 0.316 µM
# [40] = second compound 10 µM, first compound 1 µM
# [41] = second compound 10 µM, first compound 3.16 µM
# [42] = second compound 10 µM, first compound 10 µM
# 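Also: viability read after seven days of drug exposure.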
# 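For viability, T/C in this document: luminescence signal used as a proxy for viable cells; 100% = DMSO vehicle control wells.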
structure (smiles),measurement,setting,value
COc1ncnc(C2CC2)c1-c1ncc2cnn(Cc3ccc(-c4nc(C(F)(F)F)cn4C(C)C)cc3)c2n1 + CN(C)c1ccc(Nc2c3ccc(NC(=O)CCN4CCCC4)cc3nc3cc(NC(=O)CCN4CCCC4)ccc23)cc1,IC50,[1],> 10000 nM
same,IC50,[2],> 10000 nM
same,IC50,[3],> 10000 nM
same,IC50,[4],91.6 nM
same,IC50,[5],< 31.6 nM
same,IC50,[6],< 31.6 nM
same,"viability, T/C",[7],79.6%
same,"viability, T/C",[8],62.9%
same,"viability, T/C",[9],69.6%
same,"viability, T/C",[10],64%
same,"viability, T/C",[11],56.9%
same,"viability, T/C",[12],57.4%
same,"viability, T/C",[13],69.4%
same,"viability, T/C",[14],47.5%
same,"viability, T/C",[15],66%
same,"viability, T/C",[16],39.1%
same,"viability, T/C",[17],63%
same,"viability, T/C",[18],68.8%
same,"viability, T/C",[19],71.5%
same,"viability, T/C",[20],61.9%
same,"viability, T/C",[21],58.1%
same,"viability, T/C",[22],54.4%
same,"viability, T/C",[23],64.2%
same,"viability, T/C",[24],48.9%
same,"viability, T/C",[25],57.2%
same,"viability, T/C",[26],52.5%
same,"viability, T/C",[27],49.2%
same,"viability, T/C",[28],25.7%
same,"viability, T/C",[29],54.3%
same,"viability, T/C",[30],48.9%
same,"viability, T/C",[31],32.4%
same,"viability, T/C",[32],31.1%
same,"viability, T/C",[33],36.2%
same,"viability, T/C",[34],30.8%
same,"viability, T/C",[35],26%
same,"viability, T/C",[36],17.8%
same,"viability, T/C",[37],4.33%
same,"viability, T/C",[38],4.66%
same,"viability, T/C",[39],3.91%
same,"viability, T/C",[40],3.97%
same,"viability, T/C",[41],2.12%
same,"viability, T/C",[42],0.46%
CC(C)n1c(=O)n(C)c2cnc3cc(F)c(-c4ccc(OCCCN5CCCCC5)nc4)cc3c21,"viability, T/C",compound 0.0316 µM,72.8% and 108%
same,"viability, T/C",compound 0.1 µM,97.3% and 87.1%
same,"viability, T/C",compound 0.316 µM,90.1% and 107%
same,"viability, T/C",compound 1 µM,56.6% and 102%
same,"viability, T/C",compound 3.16 µM,57.8% and 80.4%
same,"viability, T/C",compound 10 µM,53.7% and 49%
same,IC50,curve of compound,> 10000 nM and 9660 nM
CCc1c2c(nc3ccc(O)cc13)-c1cc3c(c(=O)n1C2)COC(=O)[C@]3(O)CC,"viability, T/C",compound 0.000999 µM,46.6%
same,"viability, T/C",compound 0.00316 µM,22.1%
same,"viability, T/C",compound 0.00999 µM,23.3%
same,"viability, T/C",compound 0.0316 µM,22.9%
same,"viability, T/C",compound 0.0999 µM,19.6%
same,"viability, T/C",compound 0.316 µM,10.7%
same,IC50,curve of compound,< 0.999 nM
O=C(NO)c1cnc(N2CCN(S(=O)(=O)c3ccc4ccccc4c3)CC2)nc1,"viability, T/C",compound 0.0316 µM,37.6% and 34.2% and 52.9%
same,"viability, T/C",compound 0.1 µM,16.6% and 16.8% and 20.5%
same,"viability, T/C",compound 0.316 µM,7.21% and 7.67% and 7.55%
same,"viability, T/C",compound 1 µM,5.31% and 5.87% and 4.07%
same,"viability, T/C",compound 3.16 µM,0.18% and 0.1% and 0.17%
same,"viability, T/C",compound 10 µM,0.11% (2×) and 0.08%
same,IC50,curve of compound,< 31.6 nM and 34.8 nM
CC1COCCN1c1cc(C2(O)CC3CCC(C2)O3)c2cnn(-c3ccn[nH]3)c2n1 (configuration not stated) + Cc1cnc(CNC(=O)c2c(=O)c3ccc(N4CCCN(C)CC4)nc3n3c2sc2ccccc23)cn1,IC50,[1],< 31.6 nM
same,IC50,[2],< 31.6 nM
same,IC50,[3],< 31.6 nM
same,IC50,[4],< 31.6 nM
same,IC50,[5],< 31.6 nM
same,IC50,[6],< 31.6 nM
same,"viability, T/C",[7],28.1%
same,"viability, T/C",[8],18.8%
same,"viability, T/C",[9],14.3%
same,"viability, T/C",[10],6.98%
same,"viability, T/C",[11],2.58%
same,"viability, T/C",[12],1.35%
same,"viability, T/C",[13],21%
same,"viability, T/C",[14],17.8%
same,"viability, T/C",[15],15.2%
same,"viability, T/C",[16],6.8%
same,"viability, T/C",[17],3.54%
same,"viability, T/C",[18],1.24%
same,"viability, T/C",[19],17.7%
same,"viability, T/C",[20],16.3%
same,"viability, T/C",[21],13.8%
same,"viability, T/C",[22],7.53%
same,"viability, T/C",[23],3.12%
same,"viability, T/C",[24],1.5%
same,"viability, T/C",[25],15%
same,"viability, T/C",[26],14.2%
same,"viability, T/C",[27],11.4%
same,"viability, T/C",[28],6.81%
same,"viability, T/C",[29],3.62%
same,"viability, T/C",[30],1.25%
same,"viability, T/C",[31],16.1%
same,"viability, T/C",[32],16.7%
same,"viability, T/C",[33],13.5%
same,"viability, T/C",[34],8.88%
same,"viability, T/C",[35],3.75%
same,"viability, T/C",[36],1.52%
same,"viability, T/C",[37],15.6%
same,"viability, T/C",[38],15.8%
same,"viability, T/C",[39],14%
same,"viability, T/C",[40],6.65%
same,"viability, T/C",[41],2.67%
same,"viability, T/C",[42],0.14%
C#Cc1c(F)ccc2cc(O)cc(-c3ncc4c(N5CC6CCC(C5)N6)nc(OCC56CCCN5CC(F)C6)nc4c3F)c12 (configuration not stated),"viability, T/C",compound 0.0316 µM,99.5% and 96.3% and 104%
same,"viability, T/C",compound 0.1 µM,88.7% and 68.7% and 103%
same,"viability, T/C",compound 0.316 µM,77.1% and 102% and 113%
same,"viability, T/C",compound 1 µM,83% and 87.9% and 71.9%
same,"viability, T/C",compound 3.16 µM,66.9% and 56.5% and 70.4%
same,"viability, T/C",compound 10 µM,49.2% and 39.9% and 35.7%
same,IC50,curve of compound,> 10000 nM and 4970 nM and 5760 nM
